Experimental data from patent US9314508B2, “Use of somatostatin analogs in control of hypoglycemia” (priority 2008, dated 2016).

How the values were obtained:
fed rats = experiment: glyburide effect on plasma glucose in fed rats; format: in vivo, rat; settings: for glucose −30 min / glucose 1 h / glucose 3 h / glucose 6 h / glucose −24 h: fed animals; for glucose −30 min: 30 min before application (baseline); for glucose 1 h: 1 h after application; for glucose 3 h: 3 h after application; for glucose 6 h: 6 h after application; for glucose −24 h: 24 h before application (baseline)
Procedure: 30 min before the application of the compound (FIG. 1, Table 1).

[1] = tested on: adult male Lewis rats fasted for 24 h; experiment: glyburide induced hypoglycemia in fasted rats, plasma glucose; format: in vivo, rat; settings: for glucose −30 min / glucose 1 h / glucose 3 h / glucose 6 h / glucose −24 h: fasted animals; for glucose −30 min: 30 min before application (baseline); for glucose 1 h: 1 h after application; for glucose 3 h: 3 h after application; for glucose 6 h: 6 h after application; for glucose −24 h: 24 h before application (baseline)
Procedure: Food restriction for 24 h reduced plasma glucose concentration in all treatment groups from about 8 mmol/l to approximately 6 mmol/l. 30 min before the application of the compound (FIG. 1, Table 1).

patients = patients with hypoglycemia receiving octreotide; cited from earlier work
[2] = Glyburide 30 mg/kg p.o. + 10 μg/kg s.c.
[3] = Glyburide 30 mg/kg p.o. + 30 μg/kg s.c.

Q: For `COc1ccc(Cl)cc1C(=O)NCCc1ccc(S(=O)(=O)NC(=O)NC2CCCCC2)cc1` [Glyburide], which “glucose −30 min” value (fed rats; Glyburide 30 mg/kg p.o. alone) is on record?
A: 8.72 ± 0.14 mmol/L

Q: What about the “glucose 1 h” value (fed rats; Glyburide 30 mg/kg p.o. alone) of the same molecule?
A: 7.42 ± 0.18 mmol/L

Q: What about the “glucose 3 h” value (fed rats; Glyburide 30 mg/kg p.o. alone) of the same molecule?
A: 5.33 ± 0.16 mmol/L

Q: What about the “glucose 6 h” value (fed rats; Glyburide 30 mg/kg p.o. alone) of the same molecule?
A: 6.27 ± 0.16 mmol/L

Q: What about the “glucose −24 h” value (fed rats; Glyburide 30 mg/kg p.o. alone) of the same molecule?
A: 8.65 ± 0.11 mmol/L

Q: What about the hypoglycemic effect (fed rats; fed rats, glyburide alone) of the same molecule?
A: not very pronounced

Q: What about the “glucose −30 min” value ([1]; Glyburide 30 mg/kg p.o. alone) of the same molecule?
A: 6.07 ± 0.39 mmol/L

Q: And the “glucose 1 h” value ([1]; Glyburide 30 mg/kg p.o. alone)?
A: 5.48 ± 0.15 mmol/L

Q: And the “glucose 3 h” value ([1]; Glyburide 30 mg/kg p.o. alone)?
A: 4.17 ± 0.16 mmol/L

Q: And the “glucose 6 h” value ([1]; Glyburide 30 mg/kg p.o. alone)?
A: 3.53 ± 0.13 mmol/L

Q: And the “glucose −24 h” value ([1]; Glyburide 30 mg/kg p.o. alone)?
A: 7.87 ± 0.34 mmol/L

Q: What about the “minimum plasma glucose level” value ([1]; fasted rats, Glyburide 30 mg/kg p.o. alone, 6 h after the application) of the same molecule?
A: 3.5 mmol/L

Q: Which results are given for `C[C@@H](O)[C@@H]1NC(=O)[C@H](CCCCN)NC(=O)[C@@H](Cc2c[nH]c3ccccc23)NC(=O)[C@H](Cc2ccccc2)NC(=O)[C@@H](NC(=O)[C@H](N)Cc2ccccc2)CSSC[C@@H](C(=O)N[C@H](CO)[C@@H](C)O)NC1=O` [octreotide]?
A: glucose 1 h (fed rats; [2]): 7.27 ± 0.15 mmol/L; glucose 3 h (fed rats; [2]): 5.80 ± 0.24 mmol/L; glucose 6 h (fed rats; [2]): 6.00 ± 0.44 mmol/L; glucose −24 h (fed rats; [2]): 8.17 ± 0.38 mmol/L; glucose 1 h (fed rats; [3]): 7.48 ± 0.25 mmol/L; glucose 3 h (fed rats; [3]): 5.63 ± 0.24 mmol/L; glucose 6 h (fed rats; [3]): 6.10 ± 0.43 mmol/L; glucose −24 h (fed rats; [3]): 8.07 + 0.43 mmol/L; serum glucose level versus controls (patients): higher than that in controls; time within which the effect on serum glucose waned (patients): ≤ 8 h; glucose −30 min [1, 2]: 5.75 ± 0.21 mmol/L; glucose 1 h [1, 2]: 4.27 ± 0.07 mmol/L; glucose 3 h [1, 2]: 4.28 ± 0.14 mmol/L; glucose 6 h [1, 2]: 4.28 ± 0.23 mmol/L; glucose −24 h [1, 2]: 8.53 ± 0.27 mmol/L; glucose −30 min [1, 3]: 6.43 ± 0.49 mmol/L; glucose 1 h [1, 3]: 4.22 ± 0.14 mmol/L; glucose 3 h [1, 3]: 5.83 ± 0.28 mmol/L; glucose 6 h [1, 3]: 4.83 ± 0.24 mmol/L; glucose −24 h [1, 3]: 8.63 ± 0.19 mmol/L; prevention of the glyburide induced hypoglycemia ([1]; fasted rats, Glyburide 30 mg/kg p.o. + 10 or 30 μg/kg s.c., after 1 h): not effective; effect on glucose levels in glyburide treated rats ([1]; fasted rats, highest dose (30 μg/kg s.c.), after 3 and 6 h): only a small tendency to increase glucose levels

Q: With “cyclo[{(4-(NH2—C2H4—NH—CO—O—)Pro}-Phg-DTrp-Lys-Tyr(4-Bzl)-Phe] [pasireotide]” as the molecule, how does the “glucose −30 min” value (fed rats; [2]) read?
A: 8.53 ± 0.34 mmol/L

Q: And the “glucose 1 h” value (fed rats; [2])?
A: 13.48 ± 0.65 mmol/L

Q: And the “glucose 3 h” value (fed rats; [2])?
A: 12.42 ± 0.39 mmol/L

Q: And the “glucose 6 h” value (fed rats; [2])?
A: 6.85 ± 0.23 mmol/L

Q: And the “glucose −24 h” value (fed rats; [2])?
A: 8.65 ± 0.18 mmol/L

Q: What about the “glucose −30 min” value (fed rats; [3]) of the same molecule?
A: 8.10 ± 0.29 mmol/L

Q: And the “glucose 1 h” value (fed rats; [3])?
A: 13.47 ± 0.91 mmol/L

Q: What about the “glucose 3 h” value (fed rats; [3]) of the same molecule?
A: 13.13 ± 0.69 mmol/L

Q: What about the “glucose 6 h” value (fed rats; [3]) of the same molecule?
A: 9.12 ± 0.47 mmol/L

Q: What about the “glucose −24 h” value (fed rats; [3]) of the same molecule?
A: 8.85 ± 0.25 mmol/L

Q: What about the “effect on plasma glucose” value (fed rats; fed rats pretreated with glyburide) of the same molecule?
A: significant but transit effect

Q: And the “glucose −30 min” value [1, 2]?
A: 5.88 ± 0.16 mmol/L

Q: What about the “glucose 1 h” value [1, 2] of the same molecule?
A: 7.00 ± 0.42 mmol/L

Q: What about the “glucose 3 h” value [1, 2] of the same molecule?
A: 6.22 ± 0.42 mmol/L

Q: And the “glucose 6 h” value [1, 2]?
A: 6.48 ± 0.52 mmol/L

Q: What about the “glucose −24 h” value [1, 2] of the same molecule?
A: 8.07 ± 0.45 mmol/L

Q: And the “glucose −30 min” value [1, 3]?
A: 6.10 ± 0.23 mmol/L

Q: And the “glucose 1 h” value [1, 3]?
A: 6.98 ± 0.59 mmol/L

Q: What about the “glucose 3 h” value [1, 3] of the same molecule?
A: 7.55 ± 0.47 mmol/L

Q: And the “glucose 6 h” value [1, 3]?
A: 7.58 ± 0.47 mmol/L

Q: What about the “glucose −24 h” value [1, 3] of the same molecule?
A: 7.93 ± 0.52 mmol/L

Q: What about the “effect on plasma glucose in glyburide treated rats” value ([1]; fasted rats, Glyburide 30 mg/kg p.o. + 10 or 30 μg/kg s.c., 1, 3 and 6 h after the application) of the same molecule?
A: plasma glucose increased to levels of untreated fasted rats or above
